# Columns and labels:
# HSP90 = assay: Fluorescence polarization (FP) assay for affinity to HSP90; type: binding; settings: Table 2; means of three independent experiments
# Protocol: (§1) Most of the compounds synthesized were evaluated for their ability to induce degradation of the HSP90 client protein Her2 in SKBR-3 cells. Selected compounds were evaluated in a fluorescence polarization (FP) assay for their affinity to HSP90.
# [1] = tested on: HSP90 client protein Her2 in SKBR-3 cells; assay: Her-2 degradation assay (Her-2 ELISA) in SKBr-3 cells; type: cell-based; settings: Homo sapiens
# Protocol: as §1
# SKBr-3 cells grown in McCoy's 5a Medium supplemented with 10% fetal bovine serum (FBS) were plated into 12-well plates at 50% confluency. Increasing concentrations of inhibitors were added 24 hours later (cells are 65-70% confluent) and incubated overnight for 18 hours. The wells were washed with 2 ml of phosphate buffered saline (PBS), and 50 ul of trypsin was added to each well. After trypsinization was complete, 150 ul of FBS was added to each well. Then 200 ul of cells were transferred to 96-well plates and plates were centrifuged at 1200 rpm for 2 minutes using a tabletop centrifuge. The cells were washed once with 250 ul PBS before being lysed with 100 ul of 50 mM Tris (pH 7.4), 0.1% NP-40 lysis buffer. Protein concentrations of clarified lysates were determined using the BCA Assay (Calbiochem) according to the manufacturer's instructions. 2 ug of each lysate was analyzed in the human sp 185 Her-2 ELISA (Bender Medsystems) according to the manufacturer's instructions. ELISA plates were read at 450 nm using a multiwell plate spectrophotometer. Background was determined by measuring the Abs 450 nm of wells with no lysate added. The background value was subtracted from all values. Absorbance 450 nm values for each inhibitor were plotted against the log 10 inhibitor concentration, and IC50 values were calculated using a nonlinear least-square curve fitting program in Prism 5.
# BT474 = assay: MTS assay (cytotoxicity), growth inhibition of BT474; type: cell-based; settings: Homo sapiens, BT-474, 120 h, Table 5, series III, 5 days, read-out: Growth Inhibition (IC50) BT474
# Protocol: (§2) Cells were seeded in 96-well plates at 2000 cells/well in a final culture volume of 100 ul for 24 hours before the addition of 25 ul of increasing concentrations of inhibitors that was incubated for 5 days. Viable cell number was determined using the CellTiter 96 AQueous One Solution Cell Proliferation Assay (Promega). Plates were read at 490 nm absorbance 2-4 hours after addition of the MTS reagent using a multiwell plate spectrophotometer. Background was determined by measuring the Abs 490 nm of cell culture medium and MTS in the absence of cells. The background value was subtracted from all values. Absorbance 490 nm values for each inhibitor were plotted against the log 10 inhibitor concentration, and IC50 values were calculated using a nonlinear least-square curve fitting program in Prism 5.
# MCF-7 = assay: MTS assay (cytotoxicity), growth inhibition of MCF-7; type: cell-based; settings: Homo sapiens, MCF7, 120 h, Table 5, series III, 5 days, read-out: Growth Inhibition (IC50) MCF-7
# Protocol: as §2
# SKBR-3 = assay: MTS assay (cytotoxicity), growth inhibition of SKBR-3; type: cell-based; settings: Homo sapiens, SK-BR-3, 120 h, Table 5, series III, 5 days, read-out: Growth Inhibition (IC50) SKBR-3
# Protocol: as §2
# HT29 = assay: MTS assay (cytotoxicity), growth inhibition of HT29; type: cell-based; settings: Homo sapiens, HT-29, 120 h, Table 5, series III, 5 days, read-out: Growth Inhibition (IC50) HT29
# Protocol: as §2
# [2] = SK-BR-3, Table 2, 18 hours, means of three independent experiments
# [3] = SK-BR-3, Table 5, series III, 18 hours
IC50 (HSP90),"IC50 [1, 2]","IC50 [1, 3]",SMILES,IC50 (BT474),IC50 (MCF-7),IC50 (SKBR-3),IC50 (HT29)
,,100 nM,"CCN(CC)CCNC(=O)c1c[nH]c(/C=C2\C(=O)N(Cc3cc(C)n(C)n3)c3nc(N)nc(Cl)c32)c1 [III-59, (Z)-5-((2-Amino-4-chloro-7-((1,5-dimethyl-1H-pyrazol-3-yl)methyl)-6-oxo-6,7-dihydro-5H-pyrrolo[2,3-d]pyrimidin-5-ylidene)methyl)-N-(2-(diethylamino)ethyl)-1H-pyrrole-3-carboxamide]",160 nM,1700 nM,60 nM,320 nM
,,90 nM,"COc1c(C)cnc(CN2C(=O)/C(=C\c3nc(NC(=O)C4CCOCC4)c[nH]3)c3c(Cl)nc(N)nc32)c1C [III-75, (Z)-N-(2-((2-Amino-4-chloro-7-((4-methoxy-3,5-dimethylpyridin-2-yl)methyl)-6-oxo-6,7-dihydro-5H-pyrrolo[2,3-d]pyrimidin-5-ylidene)methyl)-1H-imidazol-4-yl)tetrahydro-2H-pyran-4-carboxamide]",60 nM,160 nM,7 nM,50 nM
,,80 nM,COc1c(C)cnc(CN2C(=O)/C(=C\c3cc(C(=O)CN4CCC(C(F)(F)F)CC4)c[nH]3)c3c(Cl)nc(N)nc32)c1C [III-94],790 nM,390 nM,90 nM,350 nM
,,40 nM,"CCN(CC)CCNC(=O)c1c(C)[nH]c(/C=C2\C(=O)N(Cc3ncc(C)c(OC)c3C)c3nc(N)nc(Cl)c32)c1C [III-102, (Z)-5-((2-Amino-4-chloro-7-((4-methoxy-3,5-dimethylpyridin-2-yl)methyl)-6-oxo-6,7-dihydro-5H-pyrrolo[2,3-d]pyrimidin-5-ylidene)methyl)-N-(2-(diethylamino)ethyl)-2,4-dimethyl-1H-pyrrole-3-carboxamide]",70 nM,21300 nM,10 nM,30 nM

# More lines, now with the values behind:
SMILES,IC50 (HSP90),"IC50 [1, 2]","IC50 [1, 3]",IC50 (BT474),IC50 (MCF-7),IC50 (SKBR-3),IC50 (HT29)
COc1c(C)cnc(CN2c3nc(N)nc(Cl)c3NC(=O)[C@@H]2CCO)c1C [Example I-25],640 nM,280 nM,,,,,
COc1c(C)cnc(CN2c3nc(N)nc(Cl)c3N(C(C)C)C(=O)[C@@H]2C(C)C)c1C [Example I-32],80 nM,60 nM,,,,,
"COc1c(C)cnc(CN2C(=O)/C(=C\c3cc(C(=O)NCCN4CCC(O)CC4)c[nH]3)c3c(Cl)nc(N)nc32)c1C [III-33, (Z)-5-((2-Amino-4-chloro-7-((4-methoxy-3,5-dimethylpyridin-2-yl)methyl)-6-oxo-6,7-dihydro-5H-pyrrolo[2,3-d]pyrimidin-5-ylidene)methyl)-N-(2-(4-hydroxypiperidin-1-yl)ethyl)-1H-pyrrole-3-carboxamide]",,,40 nM,3 nM,110 nM,0.6 nM,20 nM
"COc1c(C)cnc(CN2C(=O)/C(=C\c3cc(C(=O)NCCCN4CCOCC4)c[nH]3)c3c(Cl)nc(N)nc32)c1C [III-34, (Z)-5-((2-Amino-4-chloro-7-((4-methoxy-3,5-dimethylpyridin-2-yl)methyl)-6-oxo-6,7-dihydro-5H-pyrrolo[2,3-d]pyrimidin-5-ylidene)methyl)-N-(3-morpholinopropyl)-1H-pyrrole-3-carboxamide]",,,20 nM,40 nM,170 nM,10 nM,20 nM
"COc1c(C)cnc(CN2C(=O)/C(=C\c3cc(C(C)(C)C)n[nH]3)c3c(Cl)nc(N)nc32)c1C [III-52, (Z)-2-Amino-5-((3-tert-butyl-1H-pyrazol-5-yl)methylene)-4-chloro-7-((4-methoxy-3,5-dimethylpyridin-2-yl)methyl)-5H-pyrrolo[2,3-d]pyrimidin-6(7H)-one]",,,60 nM,410 nM,190 nM,140 nM,240 nM

# Source: patent US20110124634A1, “BIOACTIVE COMPOUNDS FOR TREATMENT OF CANCER AND NEURODEGENERATIVE DISEASES” (PONIARD PHARMACEUTICALS, INC., priority 2008, published 2011)
